# Values joined by “and” are separate entries in the source; they are usually repeats but may differ in a detail not shown here. Equal values may be shown once.
# Tested on: Klebsiella isolates
# Assay: Broth microdilution MIC (MICBMD) of Klebsiella isolates
# Type: cell-based, Klebsiella pneumoniae, Klebsiella oxytoca
# Description: An aliquot of bacterial suspension was added to 50 mL centrifuge tubes (Corning, N.Y.) containing 9 mL of pre-warmed (37° C.) filtered MHB to produce a final density of 5×10^5-1×10^6 bacteria per mL. This suspension was incubated at 37° C. with shaking at 100 RPM for 30 minutes to obtain an actively dividing culture. An aliquot of antibiotic working solution from the previously described dilution series (appropriate to the concentration tested) was then added to each tube before a further 30-minute incubation with shaking, during which time a microbroth dilution (MBD) plate was prepared for overnight incubation at 37° C. as previously described in Clinical and Laboratory Standards Institute (2015) Performance Standards for Antimicrobial Susceptibility Testing: Informational Supplement. CLSI document M100-S25. Clinical and Laboratory Standards Institute, 950, West Valley Road, Suite 2500, Wayne, Pa., 19087, USA.
# FIG. 2 outlines the work flow as exemplified herein. In brief, an isolate was retrieved from cryopreservation, plated onto blood agar to ensure purity, and inoculated into trypticase soy broth (TSB, described above) overnight to simulate biological fluids. A 1 mL aliquot of this overnight suspension was inoculated into Mueller-Hinton broth (MHB) [comprising about 300.0 g beef extract (dehydrated infusion from), about 17.5 g casein hydrolysate, about 1.5 g starch, reconstituted in about 1 L of water, pH 7.3±0.1 as measured and kept at 25° C.] and incubated at 37° C. to ensure bacteria were actively dividing. One aliquot was subjected to traditional microbroth dilution (MBD) susceptibility testing.
# [1] = K. pneumoniae isolate 18397, biological replicates
# [2] = K. pneumoniae isolate 43292, biological replicates
# [3] = K. pneumoniae isolate 43358, biological replicates
# [4] = K. pneumoniae isolate 44271, biological replicates
# [5] = K. pneumoniae isolate ATCC 700603, biological replicates
# [6] = K. pneumoniae isolate ATCC BAA1705, biological replicates
# [7] = K. pneumoniae isolate K1, biological replicates
# [8] = K. pneumoniae isolate K14, biological replicates
# [9] = isolate 3000770, England, NDM-1
# [10] = isolate 3040820, England, pAmpC
# [11] = isolate ATCC BAA 1705, USA, KPC
# [12] = isolate K16, Australia, IMP - 4
# [13] = isolate K23, Australia, IMP - 4
# [14] = isolate KS1, Sri Lanka, OXA-181
# [15] = isolate KS17, Sri Lanka, OXA-181
smiles,measurement,setting,value
C[C@@H](O)[C@H]1C(=O)N2C(C(=O)O)=C(S[C@@H]3CN[C@H](C(=O)N(C)C)C3)[C@H](C)[C@H]12 [meropenem],MICBMD,"K. pneumoniae ATCC 700603 (carbapenem susceptible control), limited clinical screen concentrations",≤0.25
same,MICBMD,"K. pneumoniae ATCC BAA1705 (carbapenem resistant control), limited clinical screen concentrations",>16
same,BMD S/NS,[1],S (S: MIC ≤2 mg/L)
same,MICBMD,[1],≤0.25 mg/L
same,BMD S/NS,[2],S (S: MIC ≤2 mg/L)
same,MICBMD,[2],≤0.25 mg/L
same,BMD S/NS,[3],S (S: MIC ≤2 mg/L)
same,MICBMD,[3],≤0.25 mg/L
same,BMD S/NS,[4],S (S: MIC ≤2 mg/L)
same,MICBMD,[4],0.5 mg/L
same,BMD S/NS,[5],S (S: MIC ≤2 mg/L)
same,MICBMD,[5],≤0.25 mg/L
same,BMD S/NS,[6],NS (NS: MIC >2 mg/L)
same,MICBMD,[6],16 mg/L
same,BMD S/NS,[7],NS (NS: MIC >2 mg/L)
same,MICBMD,[7],32 mg/L (2×) and 64 mg/L
same,BMD S/NS,[8],NS (NS: MIC >2 mg/L)
same,MICBMD,[8],256 mg/L
same,MICBMD,"K. pneumoniae isolate KS1, biological replicates",4 mg/L and 2 mg/L (2×)
same,MICBMD,"K. pneumoniae isolate KS11, biological replicates",2 mg/L and 4 mg/L (2×)
same,MBD S/NS,"isolate 194, Sweden, VIM",NS (NS = MIC >2 mg/L)
same,MICBMD,"isolate 194, Sweden, VIM",64 mg/L
same,MBD S/NS,"isolate 374, Sweden, VIM",NS (NS = MIC >2 mg/L)
same,MICBMD,"isolate 374, Sweden, VIM",8 mg/L
same,MBD S/NS,"isolate 3354, Australia",S (S = MIC ≤2 mg/L)
same,MICBMD,"isolate 3354, Australia",≤0.25 mg/L
same,MBD S/NS,"isolate 10924, Sweden, KPC",S (S = MIC ≤2 mg/L)
same,MICBMD,"isolate 10924, Sweden, KPC",≤0.25 mg/L
same,MBD S/NS,"isolate 18397, Australia",S (S = MIC ≤2 mg/L)
same,MICBMD,"isolate 18397, Australia",≤0.25 mg/L
same,MBD S/NS,"isolate 43288, Australia",S (S = MIC ≤2 mg/L)
same,MICBMD,"isolate 43288, Australia",≤0.25 mg/L
same,MBD S/NS,"isolate 43292, Australia",S (S = MIC ≤2 mg/L)
same,MICBMD,"isolate 43292, Australia",≤0.25 mg/L
same,MBD S/NS,"isolate 43358, Australia",S (S = MIC ≤2 mg/L)
same,MICBMD,"isolate 43358, Australia",≤0.25 mg/L
same,MBD S/NS,"isolate 43854, Australia",S (S = MIC ≤2 mg/L)
same,MICBMD,"isolate 43854, Australia",≤0.25 mg/L
same,MBD S/NS,"isolate 44271, Australia",S (S = MIC ≤2 mg/L)
same,MICBMD,"isolate 44271, Australia",0.5 mg/L
same,MBD S/NS,"isolate 51575, Sweden, ESBL",S (S = MIC ≤2 mg/L)
same,MICBMD,"isolate 51575, Sweden, ESBL",≤0.25 mg/L
same,MBD S/NS,"isolate 70708, Sweden, KPC",NS (NS = MIC >2 mg/L)
same,MICBMD,"isolate 70708, Sweden, KPC",32 mg/L
same,MBD S/NS,"isolate 71076, Sweden, KPC",NS (NS = MIC >2 mg/L)
same,MICBMD,"isolate 71076, Sweden, KPC",32 mg/L
same,MBD S/NS,"isolate 200822, Sweden, KPC",NS (NS = MIC >2 mg/L)
same,MICBMD,"isolate 200822, Sweden, KPC",16 mg/L
same,MBD S/NS,"isolate 270902, England",S (S = MIC ≤2 mg/L)
same,MICBMD,"isolate 270902, England",0.5 mg/L
same,MBD S/NS,"isolate 500638, Sweden, pAmpC",NS (NS = MIC >2 mg/L)
same,MICBMD,"isolate 500638, Sweden, pAmpC",4 mg/L
same,MBD S/NS,"isolate 515870, Sweden, ESBL",S (S = MIC ≤2 mg/L)
same,MICBMD,"isolate 515870, Sweden, ESBL",≤0.25 mg/L
same,MBD S/NS,"isolate 2440606, England",S (S = MIC ≤2 mg/L)
same,MICBMD,"isolate 2440606, England",≤0.25 mg/L
same,MBD S/NS,"isolate 2880622, England",S (S = MIC ≤2 mg/L)
same,MICBMD,"isolate 2880622, England",≤0.25 mg/L
same,MBD S/NS,"isolate 2880654, England, KPC",NS (NS = MIC >2 mg/L)
same,MICBMD,"isolate 2880654, England, KPC",64 mg/L
same,MBD S/NS,"isolate 2890369, England",S (S = MIC ≤2 mg/L)
same,MICBMD,"isolate 2890369, England",≤0.25 mg/L
same,MBD S/NS,"isolate 2980639, England",S (S = MIC ≤2 mg/L)
same,MICBMD,"isolate 2980639, England",≤0.25 mg/L
same,MBD S/NS,[9],NS (NS = MIC >2 mg/L)
same,MICBMD,[9],32 mg/L
same,MBD S/NS,[10],S (S = MIC ≤2 mg/L)
same,MICBMD,[10],0.5 mg/L
same,MBD S/NS,"isolate 3080800, England, KPC",NS (NS = MIC >2 mg/L)
same,MICBMD,"isolate 3080800, England, KPC",256 mg/L
same,MBD S/NS,"isolate A1, Norway",S (S = MIC ≤2 mg/L)
same,MICBMD,"isolate A1, Norway",≤0.25 mg/L
same,MBD S/NS,"isolate A2, Norway",S (S = MIC ≤2 mg/L)
same,MICBMD,"isolate A2, Norway",≤0.25 mg/L
same,MBD S/NS,"isolate A3, Norway",S (S = MIC ≤2 mg/L)
same,MICBMD,"isolate A3, Norway",≤0.25 mg/L
same,MBD S/NS,"isolate A4, Norway",S (S = MIC ≤2 mg/L)
same,MICBMD,"isolate A4, Norway",≤0.25 mg/L
same,MBD S/NS,"isolate A7, Norway",S (S = MIC ≤2 mg/L)
same,MICBMD,"isolate A7, Norway",≤0.25 mg/L
same,MBD S/NS,"isolate A13, Norway",S (S = MIC ≤2 mg/L)
same,MICBMD,"isolate A13, Norway",≤0.25 mg/L
same,MBD S/NS,"isolate A15, Norway",S (S = MIC ≤2 mg/L)
same,MICBMD,"isolate A15, Norway",≤0.25 mg/L
same,MBD S/NS,"isolate A16, Norway",S (S = MIC ≤2 mg/L)
same,MICBMD,"isolate A16, Norway",≤0.25 mg/L
same,MBD S/NS,"isolate A20, Norway, NDM-1",NS (NS = MIC >2 mg/L)
same,MICBMD,"isolate A20, Norway, NDM-1",16 mg/L
same,MBD S/NS,"isolate ATCC 700603, USA",S (S = MIC ≤2 mg/L)
same,MICBMD,"isolate ATCC 700603, USA",≤0.25 mg/L
same,MBD S/NS,[11],NS (NS = MIC >2 mg/L)
same,MICBMD,[11],16 mg/L
same,MBD S/NS,"isolate ATCC BAA 1706, USA",S (S = MIC ≤2 mg/L)
same,MICBMD,"isolate ATCC BAA 1706, USA",≤0.25 mg/L
same,MBD S/NS,"isolate K1, Australia, OXA-181",NS (NS = MIC >2 mg/L)
same,MICBMD,"isolate K1, Australia, OXA-181",64 mg/L
same,MBD S/NS,"isolate K2, Australia, OXA-181",NS (NS = MIC >2 mg/L)
same,MICBMD,"isolate K2, Australia, OXA-181",32 mg/L
same,MBD S/NS,"isolate K8, Australia, NDM-1",NS (NS = MIC >2 mg/L)
same,MICBMD,"isolate K8, Australia, NDM-1",>256 mg/L
same,MBD S/NS,"isolate K14, Australia, KPC",NS (NS = MIC >2 mg/L)
same,MICBMD,"isolate K14, Australia, KPC",>256 mg/L
same,MBD S/NS,[12],NS (NS = MIC >2 mg/L)
same,MICBMD,[12],16 mg/L
same,MBD S/NS,[13],S (S = MIC ≤2 mg/L)
same,MICBMD,[13],2 mg/L
same,MBD S/NS,[14],NS (NS = MIC >2 mg/L)
same,MICBMD,[14],4 mg/L
same,MBD S/NS,"isolate KS2, Sri Lanka, OXA-181",NS (NS = MIC >2 mg/L)
same,MBD S/NS,[15],NS (NS = MIC >2 mg/L)
same,MICBMD,[15],64 mg/L
same,MBD S/NS,"isolate KS23, Sri Lanka, OXA-181",NS (NS = MIC >2 mg/L)
same,MBD S/NS,"isolate N17, Sweden, NDM-1",NS (NS = MIC >2 mg/L)
same,MICBMD,"isolate N17, Sweden, NDM-1",32 mg/L
